Assays:
Format in all cases: in vivo
Apera spica-venti = test: greenhouse herbicidal test, pre-emergence treatment; conditions: pre-emergence method, application rate 2000 g/ha, scale from 0 to 100, test period 2 to 4 weeks
Description: (§1) The seeds of the test plants were sown separately for each species. For the pre-emergence treatment, the active ingredients, which had been suspended or emulsified in water, were applied directly after sowing by means of finely distributing nozzles. The containers were irrigated gently to promote germination and growth and subsequently covered with transparent plastic hoods until the plants had rooted. This cover caused uniform germination of the test plants, unless this had been impaired by the active ingredients. Depending on the species, the plants were kept at 10-25° C. or 20-35° C., respectively. The test period extended over 2 to 4 weeks. During this time, the plants were tended, and their response to the individual treatments was evaluated. Evaluation was carried out using a scale from 0 to 100. 100 means no emergence of the plants, or complete destruction of at least the aerial moieties, and 0 means no damage, or normal course of growth. A good herbicidal activity is given at values of at least 70 and a very good herbicidal activity is given at values of at least 85. The plants used in the greenhouse experiments were of the following species: [table]

Amaranthus retroflexus = test: greenhouse herbicidal test, post-emergence treatment; conditions: post-emergence method, application rate 2000 g/ha, scale from 0 to 100, test period 2 to 4 weeks
Description: (§2) The seeds of the test plants were sown separately for each species. For the post-emergence treatment, the test plants were first grown to a height of 3 to 15 cm, depending on the plant habit, and only then treated with the active ingredients which had been suspended or emulsified in water. For this purpose, the test plants were either sown directly and grown in the same containers, or they were first grown separately as seedlings and transplanted into the test containers a few days prior to treatment. Depending on the species, the plants were kept at 10-25° C. or 20-35° C., respectively. The test period extended over 2 to 4 weeks. During this time, the plants were tended, and their response to the individual treatments was evaluated. Evaluation was carried out using a scale from 0 to 100. 100 means no emergence of the plants, or complete destruction of at least the aerial moieties, and 0 means no damage, or normal course of growth. A good herbicidal activity is given at values of at least 70 and a very good herbicidal activity is given at values of at least 85. The plants used in the greenhouse experiments were of the following species: [table]

Echinocloa crus-galli [1] = test: as above; conditions: post-emergence method, application rate 2000 g/ha, scale from 0 to 100, test period 2 to 4 weeks
Description: as §2

Echinocloa crus-galli [2] = test: greenhouse herbicidal test, pre-emergence treatment; conditions: pre-emergence method, application rate 2000 g/ha, scale from 0 to 100, test period 2 to 4 weeks
Description: as §1

Avena fatua = test: greenhouse herbicidal test, post-emergence treatment; conditions: post-emergence method, application rate 2000 g/ha, scale from 0 to 100, test period 2 to 4 weeks
Description: as §2

Alopecurus myosuroides = test: as above; conditions: post-emergence method, application rate 2000 g/ha, scale from 0 to 100, test period 2 to 4 weeks
Description: as §2

Setaria viridis = test: as above; conditions: post-emergence method, application rate 2000 g/ha, scale from 0 to 100, test period 2 to 4 weeks
Description: as §2

ABUTH = test: as above; conditions: post-emergence method, application rate 2000 g/ha, scale from 0 to 100, test period 2 to 4 weeks
Description: as §2, with “85.” for “85. The plants used in the greenhouse experiments were of the following species: [table]”

Question: How did the “herbicidal activity against APESV” value (Apera spica-venti) turn out when `CCOC(=O)C(C)c1nc(C2CC2)ncc1-c1ncccc1Cl` (centres unmarked) [Ex.21] was run?
Answer: good (A good herbicidal activity is given at values of at least 70)

Question: And the “herbicidal activity against AMARE” value (Amaranthus retroflexus)?
Answer: good (A good herbicidal activity is given at values of at least 70)

Question: And the “herbicidal activity against ECHCG” value (Echinocloa crus-galli [1])?
Answer: very good (a very good herbicidal activity is given at values of at least 85)

Question: `CCOC(=O)C(C)(C)c1nc(C2CC2)ncc1-c1ncccc1Cl` [Ex.22] was tested. Which “herbicidal activity against AMARE” value (Amaranthus retroflexus) did it give?
Answer: very good (a very good herbicidal activity is given at values of at least 85)

Question: `CCOC(=O)Cc1nc(C2CC2)ncc1-c1ncccc1Cl` [Ex.20] was tested. Which “herbicidal activity against ECHCG” value (Echinocloa crus-galli [2]) did it give?
Answer: very good (a very good herbicidal activity is given at values of at least 85)

Question: And the “herbicidal activity against AVEFA” value (Avena fatua)?
Answer: very good (a very good herbicidal activity is given at values of at least 85)

Question: And the “herbicidal activity against ALOMY” value (Alopecurus myosuroides)?
Answer: very good (a very good herbicidal activity is given at values of at least 85)

Question: What about the “herbicidal activity against ECHCG” value (Echinocloa crus-galli [1]) of the same molecule?
Answer: very good (a very good herbicidal activity is given at values of at least 85)

Question: Which “herbicidal activity against SETVI” value (Setaria viridis) does the source give for `Clc1cccnc1-c1cnc(C2CC2)nc1C=Cc1ccccc1` [Ex.37] here?
Answer: very good (a very good herbicidal activity is given at values of at least 85)

Question: And the “herbicidal activity against AMARE” value (Amaranthus retroflexus)?
Answer: very good (a very good herbicidal activity is given at values of at least 85)

Question: What about the “herbicidal activity against ABUTH” value (ABUTH) of the same molecule?
Answer: very good (a very good herbicidal activity is given at values of at least 85)

Question: What does the source list for `Clc1cccnc1-c1cnc(C2CC2)nc1/C=C/c1ccco1` [Ex.25]?
Answer: herbicidal activity against APESV (Apera spica-venti): very good (a very good herbicidal activity is given at values of at least 85); herbicidal activity against ECHCG (Echinocloa crus-galli [2]): very good (a very good herbicidal activity is given at values of at least 85); herbicidal activity against SETVI (Setaria viridis): very good (a very good herbicidal activity is given at values of at least 85); herbicidal activity against ALOMY (Alopecurus myosuroides): very good (a very good herbicidal activity is given at values of at least 85); herbicidal activity against ECHCG (Echinocloa crus-galli [1]): very good (a very good herbicidal activity is given at values of at least 85)

Question: How did the “herbicidal activity against APESV” value (Apera spica-venti) turn out when `OC(Cc1nc(C2CC2)ncc1-c1ncccc1Cl)c1ccco1` (centres unmarked) [Ex.24] was run?
Answer: very good (a very good herbicidal activity is given at values of at least 85)

Question: And the “herbicidal activity against ECHCG” value (Echinocloa crus-galli [2])?
Answer: very good (a very good herbicidal activity is given at values of at least 85)

Question: What about the “herbicidal activity against AVEFA” value (Avena fatua) of the same molecule?
Answer: good (A good herbicidal activity is given at values of at least 70)

Question: And the “herbicidal activity against SETVI” value (Setaria viridis)?
Answer: good (A good herbicidal activity is given at values of at least 70)

Question: What about the “herbicidal activity against ALOMY” value (Alopecurus myosuroides) of the same molecule?
Answer: very good (a very good herbicidal activity is given at values of at least 85)

Question: `CC(O)Cc1nc(C2CC2)ncc1-c1ncccc1Cl` (centres unmarked) [Ex.29] was tested. Which “herbicidal activity against APESV” value (Apera spica-venti) did it give?
Answer: very good (a very good herbicidal activity is given at values of at least 85)

Question: What about the “herbicidal activity against ECHCG” value (Echinocloa crus-galli [2]) of the same molecule?
Answer: very good (a very good herbicidal activity is given at values of at least 85)

Question: And the “herbicidal activity against SETVI” value (Setaria viridis)?
Answer: very good (a very good herbicidal activity is given at values of at least 85)

Question: What about the “herbicidal activity against ABUTH” value (ABUTH) of the same molecule?
Answer: good (A good herbicidal activity is given at values of at least 70)

Question: For `Cc1occc1-c1nc(C2CC2)ncc1-c1ncccc1Cl` [Ex.34], which “herbicidal activity against APESV” value (Apera spica-venti) is on record?
Answer: very good (a very good herbicidal activity is given at values of at least 85)

Question: And the “herbicidal activity against ECHCG” value (Echinocloa crus-galli [2])?
Answer: very good (a very good herbicidal activity is given at values of at least 85)

Question: What about the “herbicidal activity against AVEFA” value (Avena fatua) of the same molecule?
Answer: good (A good herbicidal activity is given at values of at least 70)

Question: What about the “herbicidal activity against AMARE” value (Amaranthus retroflexus) of the same molecule?
Answer: very good (a very good herbicidal activity is given at values of at least 85)

Question: What about the “herbicidal activity against ALOMY” value (Alopecurus myosuroides) of the same molecule?
Answer: very good (a very good herbicidal activity is given at values of at least 85)

Question: How did the “herbicidal activity against APESV” value (Apera spica-venti) turn out when `Cc1nc(C)c(-c2nc(C3CC3)ncc2-c2ncccc2Cl)o1` [Ex.46] was run?
Answer: very good (a very good herbicidal activity is given at values of at least 85)

Question: And the “herbicidal activity against ECHCG” value (Echinocloa crus-galli [2])?
Answer: very good (a very good herbicidal activity is given at values of at least 85)

Question: And the “herbicidal activity against AVEFA” value (Avena fatua)?
Answer: very good (a very good herbicidal activity is given at values of at least 85)

Question: And the “herbicidal activity against SETVI” value (Setaria viridis)?
Answer: very good (a very good herbicidal activity is given at values of at least 85)

Question: What about the “herbicidal activity against ECHCG” value (Echinocloa crus-galli [1]) of the same molecule?
Answer: very good (a very good herbicidal activity is given at values of at least 85)

Question: `Cc1occc1-c1nc(C2CC2)ncc1-c1ncccc1Br` [Ex.12] was tested. Which “herbicidal activity against APESV” value (Apera spica-venti) did it give?
Answer: very good (a very good herbicidal activity is given at values of at least 85)

Question: And the “herbicidal activity against AVEFA” value (Avena fatua)?
Answer: good (A good herbicidal activity is given at values of at least 70)

Question: And the “herbicidal activity against ALOMY” value (Alopecurus myosuroides)?
Answer: good (A good herbicidal activity is given at values of at least 70)

Question: And the “herbicidal activity against ECHCG” value (Echinocloa crus-galli [1])?
Answer: good (A good herbicidal activity is given at values of at least 70)

Question: What does the source list for `OC(Cc1nc(C2CC2)ncc1-c1ncccc1Cl)c1cccs1` (centres unmarked) [Ex.33]?
Answer: herbicidal activity against AMARE (Amaranthus retroflexus): very good (a very good herbicidal activity is given at values of at least 85); herbicidal activity against ECHCG (Echinocloa crus-galli [1]): good (A good herbicidal activity is given at values of at least 70)

Question: `Clc1cccnc1-c1cnc(C2CC2)nc1-c1ccoc1` [Ex.27] was tested. Which “herbicidal activity against APESV” value (Apera spica-venti) did it give?
Answer: very good (a very good herbicidal activity is given at values of at least 85)

Question: And the “herbicidal activity against ECHCG” value (Echinocloa crus-galli [2])?
Answer: very good (a very good herbicidal activity is given at values of at least 85)

Question: What about the “herbicidal activity against AVEFA” value (Avena fatua) of the same molecule?
Answer: very good (a very good herbicidal activity is given at values of at least 85)

Question: And the “herbicidal activity against ALOMY” value (Alopecurus myosuroides)?
Answer: very good (a very good herbicidal activity is given at values of at least 85)

Question: And the “herbicidal activity against ECHCG” value (Echinocloa crus-galli [1])?
Answer: very good (a very good herbicidal activity is given at values of at least 85)

Question: Which results are given for `Clc1cccnc1-c1cnc(C2CC2)nc1C=Cc1cccs1` [Ex.35]?
Answer: herbicidal activity against APESV (Apera spica-venti): very good (a very good herbicidal activity is given at values of at least 85); herbicidal activity against ECHCG (Echinocloa crus-galli [2]): very good (a very good herbicidal activity is given at values of at least 85); herbicidal activity against AVEFA (Avena fatua): good (A good herbicidal activity is given at values of at least 70); herbicidal activity against SETVI (Setaria viridis): very good (a very good herbicidal activity is given at values of at least 85); herbicidal activity against ALOMY (Alopecurus myosuroides): very good (a very good herbicidal activity is given at values of at least 85)

Question: Which results are given for `Clc1cccnc1-c1cnc(C2CC2)nc1C=C1CCCC1` [Ex.28]?
Answer: herbicidal activity against APESV (Apera spica-venti): very good (a very good herbicidal activity is given at values of at least 85); herbicidal activity against ECHCG (Echinocloa crus-galli [2]): very good (a very good herbicidal activity is given at values of at least 85); herbicidal activity against AVEFA (Avena fatua): good (A good herbicidal activity is given at values of at least 70); herbicidal activity against ALOMY (Alopecurus myosuroides): very good (a very good herbicidal activity is given at values of at least 85); herbicidal activity against ECHCG (Echinocloa crus-galli [1]): very good (a very good herbicidal activity is given at values of at least 85)

Question: For `CCC(=O)Cc1nc(C2CC2)ncc1-c1ncccc1Cl` [Ex.44], which “herbicidal activity against APESV” value (Apera spica-venti) is on record?
Answer: very good (a very good herbicidal activity is given at values of at least 85)

Question: And the “herbicidal activity against ECHCG” value (Echinocloa crus-galli [2])?
Answer: very good (a very good herbicidal activity is given at values of at least 85)

Question: And the “herbicidal activity against AMARE” value (Amaranthus retroflexus)?
Answer: good (A good herbicidal activity is given at values of at least 70)

Question: And the “herbicidal activity against ALOMY” value (Alopecurus myosuroides)?
Answer: very good (a very good herbicidal activity is given at values of at least 85)

Question: What does the source list for `Cc1ccoc1-c1nc(C2CC2)ncc1-c1ncccc1Br` [Ex.18]?
Answer: herbicidal activity against AVEFA (Avena fatua): very good (a very good herbicidal activity is given at values of at least 85); herbicidal activity against ECHCG (Echinocloa crus-galli [1]): good (A good herbicidal activity is given at values of at least 70)

Question: `Cc1ccc(-c2nc(C3CC3)ncc2-c2ncccc2Br)o1` [Ex.17] was tested. Which “herbicidal activity against APESV” value (Apera spica-venti) did it give?
Answer: very good (a very good herbicidal activity is given at values of at least 85)

Question: What about the “herbicidal activity against ECHCG” value (Echinocloa crus-galli [2]) of the same molecule?
Answer: very good (a very good herbicidal activity is given at values of at least 85)

Question: What about the “herbicidal activity against AVEFA” value (Avena fatua) of the same molecule?
Answer: very good (a very good herbicidal activity is given at values of at least 85)

— patent US20210345613A1, “HERBICIDAL PYRIMIDINE COMPOUNDS” (BASF SE, priority 2016, published 2021)
